# How the values were obtained:
# Human Calpain 1/NS1 = target: T1, Human Calpain 1/NS1 (Homo sapiens, UniProt P07384); assay: Calpain inhibition, continuous fluorescence (FRET substrate) assay, calpain 1; format: biochemical; details: SensoLyte 520 FRET substrate, 25C
# T1 sequence (P07384 1-714): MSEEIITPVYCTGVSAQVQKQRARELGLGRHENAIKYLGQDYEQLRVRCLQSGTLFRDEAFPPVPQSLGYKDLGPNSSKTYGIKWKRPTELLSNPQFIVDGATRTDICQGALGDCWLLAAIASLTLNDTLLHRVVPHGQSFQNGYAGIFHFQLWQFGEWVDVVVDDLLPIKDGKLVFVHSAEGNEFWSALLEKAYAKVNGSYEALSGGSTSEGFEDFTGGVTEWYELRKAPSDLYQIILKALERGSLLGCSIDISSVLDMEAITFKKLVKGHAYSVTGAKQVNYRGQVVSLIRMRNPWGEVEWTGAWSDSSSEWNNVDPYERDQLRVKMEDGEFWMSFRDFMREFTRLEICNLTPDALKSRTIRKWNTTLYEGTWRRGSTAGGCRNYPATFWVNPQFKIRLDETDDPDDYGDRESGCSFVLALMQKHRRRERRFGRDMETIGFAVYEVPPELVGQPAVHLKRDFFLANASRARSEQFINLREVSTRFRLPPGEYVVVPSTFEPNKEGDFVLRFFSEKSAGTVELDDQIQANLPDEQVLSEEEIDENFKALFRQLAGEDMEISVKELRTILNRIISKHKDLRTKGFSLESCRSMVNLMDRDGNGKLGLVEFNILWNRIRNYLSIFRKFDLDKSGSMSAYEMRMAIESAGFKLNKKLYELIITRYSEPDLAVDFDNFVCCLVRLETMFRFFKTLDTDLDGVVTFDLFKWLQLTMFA
# T1 sequence (P04632 1-268 partner): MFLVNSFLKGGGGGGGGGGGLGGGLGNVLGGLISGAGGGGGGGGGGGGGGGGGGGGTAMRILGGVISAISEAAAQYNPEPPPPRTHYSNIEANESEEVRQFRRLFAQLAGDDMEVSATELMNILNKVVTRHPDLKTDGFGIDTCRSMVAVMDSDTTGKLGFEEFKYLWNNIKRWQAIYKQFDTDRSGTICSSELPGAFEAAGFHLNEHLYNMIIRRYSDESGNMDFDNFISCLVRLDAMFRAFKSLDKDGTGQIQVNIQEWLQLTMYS
# Description: (§1) Calpain 1, 2, and 9 activity and inhibition thereof was assessed by means of a continuous fluorescence assay. The SensoLyte 520 Calpain substrate (Anaspec Inc) was optimized for detecting calpain activity. This substrate contains an internally quenched 5-FAM/QXLTM 520 FRET pair. Calpains 1, 2, and 9 cleave the FRET substrate into two separate fragments resulting in an increase of 5-FAM fluorescence that is proportional to calpain activity Assays were typically setup in black 384-well plates using automated liquid handling as follows. Calpain assay base buffer typically contains 50 mM Tris, pH 7.5, 100 mM NaCl and 1 mM DTT. Inhibitors were serially diluted in DMSO and used to setup 2× mixtures with calpains in the aforementioned buffer. After incubation at ambient temperature (25C), the reaction was initiated by adding a 2× mix of the fluorescent peptide substrate and CaCl2) (required for in-situ calpain activation) in the same buffer. Reaction progress curve data were typically collected for 10 min using excitation/emission wavelengths of 490 nm/520 nm on SpectraMax i3× or the FLIPR-Tetra plate readers (Molecular Devices Inc). Reaction rates were calculated from progress curve slopes typically over 1-5 min. Dose response curves (rate vs. log inhibitor concentration) were typically fit to a 4-parameter logistic function to extract IC50 values.
# Human Calpain 9/NS1 = target: T2, Human Calpain 9/NS1 (Homo sapiens, UniProt O14815); assay: Calpain inhibition, continuous fluorescence (FRET substrate) assay, calpain 9; format: biochemical; details: SensoLyte 520 FRET substrate, 25C
# T2 sequence (O14815 1-690): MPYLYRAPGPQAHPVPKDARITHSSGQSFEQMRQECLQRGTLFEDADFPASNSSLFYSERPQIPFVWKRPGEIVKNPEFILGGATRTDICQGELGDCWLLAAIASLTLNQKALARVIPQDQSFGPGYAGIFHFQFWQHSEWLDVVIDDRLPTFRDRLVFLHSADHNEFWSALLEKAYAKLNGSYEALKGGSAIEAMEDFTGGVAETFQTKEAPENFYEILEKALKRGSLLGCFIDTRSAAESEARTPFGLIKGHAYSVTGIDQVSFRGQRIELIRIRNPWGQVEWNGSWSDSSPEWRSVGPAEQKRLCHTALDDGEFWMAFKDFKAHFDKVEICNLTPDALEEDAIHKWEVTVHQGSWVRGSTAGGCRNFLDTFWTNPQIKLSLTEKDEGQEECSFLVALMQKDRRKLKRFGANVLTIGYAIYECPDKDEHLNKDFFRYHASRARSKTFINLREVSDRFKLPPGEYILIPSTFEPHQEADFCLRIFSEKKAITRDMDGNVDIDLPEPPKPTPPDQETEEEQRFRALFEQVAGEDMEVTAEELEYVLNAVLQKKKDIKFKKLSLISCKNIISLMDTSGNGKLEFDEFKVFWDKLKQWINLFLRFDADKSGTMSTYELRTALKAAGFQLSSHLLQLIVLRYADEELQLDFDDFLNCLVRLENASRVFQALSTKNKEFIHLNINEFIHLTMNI
# T2 sequence (P04632 1-268 partner): T1 sequence (P04632 1-268 partner)
# Description: as §1
# [1] = test system: Calpain activity in SH-SY5Y cells; assay: SH-SY5Y spectrin breakdown product (SBDP-150) western blot assay; format: cell-based; details: Homo sapiens; SH-SY5Y cells, 25 uM A23187, SBDP-150 western blot; read-out: SH-SY5Y Spectrin IC50
# Human Calpain 2/NS1 = target: T3, Human Calpain 2/NS1 (Homo sapiens, UniProt P17655); assay: Calpain inhibition, continuous fluorescence (FRET substrate) assay, calpain 2; format: biochemical; details: SensoLyte 520 FRET substrate, 25C
# T3 sequence (P17655 1-700): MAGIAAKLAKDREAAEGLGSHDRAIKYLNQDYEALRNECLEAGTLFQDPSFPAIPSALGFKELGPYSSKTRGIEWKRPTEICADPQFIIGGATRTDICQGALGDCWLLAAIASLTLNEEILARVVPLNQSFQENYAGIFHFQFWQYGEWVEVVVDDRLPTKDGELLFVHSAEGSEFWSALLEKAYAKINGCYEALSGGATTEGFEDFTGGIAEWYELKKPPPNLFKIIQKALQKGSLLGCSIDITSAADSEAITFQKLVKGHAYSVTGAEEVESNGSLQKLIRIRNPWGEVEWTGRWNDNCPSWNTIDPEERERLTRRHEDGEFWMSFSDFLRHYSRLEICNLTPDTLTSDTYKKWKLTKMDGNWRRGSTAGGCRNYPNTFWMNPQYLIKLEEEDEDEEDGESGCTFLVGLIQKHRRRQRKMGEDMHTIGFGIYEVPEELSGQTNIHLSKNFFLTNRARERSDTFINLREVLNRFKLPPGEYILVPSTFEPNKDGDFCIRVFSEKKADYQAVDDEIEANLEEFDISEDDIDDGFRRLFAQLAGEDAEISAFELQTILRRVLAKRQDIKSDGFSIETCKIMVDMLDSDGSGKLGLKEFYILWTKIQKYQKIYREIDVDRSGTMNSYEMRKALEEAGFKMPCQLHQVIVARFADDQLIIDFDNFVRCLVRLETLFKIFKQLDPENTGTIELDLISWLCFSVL
# T3 sequence (P04632 1-268 partner): T1 sequence (P04632 1-268 partner)
# Description: as §1
# [2] = test system: Calpain activity in SH-SY5Y cells; assay: SH-SY5Y Suc-LLVY-AMC fluorescence assay; format: cell-based; details: Homo sapiens; SH-SY5Y cells, 100 uM Suc-LLVY-AMC; read-out: SH-SY5Y + AMC IC50
IC50 (Human Calpain 1/NS1) [µM],IC50 (Human Calpain 9/NS1) [µM],IC50 [1] [µM],IC50 (Human Calpain 2/NS1) [µM],IC50 [2] [µM],SMILES
< 3,< 3,10 to 25,< 3,,"NC(=O)C(=O)C(Cc1ccccc1)NC(=O)c1cn(C(F)F)nc1-c1cnc2ccccc2n1 (stereo not drawn) [Compound 25, N-(4-AMINO-3,4-DIOXO-1-PHENYLBUTAN-2-YL)-1-(DIFLUOROMETHYL)-3-(QUINOXALIN-2-YL)-1H-PYRAZOLE-4-CARBOXAMIDE]"
3 to 10,< 3,> 25,< 3,,"Cn1cc(C(=O)NC(Cc2ccccc2)C(=O)C(N)=O)c(-c2cccc3cnn(C)c23)n1 (stereo not drawn) [Compound 33, N-(4-AMINO-3,4-DIOXO-1-PHENYLBUTAN-2-YL)-1-METHYL-3-(1-METHYL-1H-INDAZOL-7-YL)-1H-PYRAZOLE-4-CARBOXAMIDE]"
< 3,< 3,< 10,< 3,,"Cc1nc(-c2ccccc2F)c(C(=O)NC(Cc2ccc(F)cc2)C(=O)C(N)=O)o1 (stereo not drawn) [Compound 73, N-(4-AMINO-1-(4-FLUOROPHENYL)-3,4-DIOXOBUTAN-2-YL)-4-(2-FLUOROPHENYL)-2-METHYLOXAZOLE-5-CARBOXAMIDE]"
< 3,< 3,> 25,< 3,,"COC(=O)C(=O)C(Cc1ccccc1)NC(=O)c1cn(C)nc1-c1cccc(F)c1 (stereo not drawn) [Compound 74, METHYL-3-(3-(3-FLUOROPHENYL)-1-METHYL-1H-PYRAZOLE-4-CARBOXAMIDO)-2-OXO-4-PHENYLBUTANOATE]"
< 3,< 3,10 to 25,< 3,,"COc1cccc(-c2nc(C)oc2C(=O)NC(Cc2ccccc2)C(=O)C(N)=O)c1F (stereo not drawn) [Compound 75, N-(4-AMINO-3,4-DIOXO-1-PHENYLBUTAN-2-YL)-4-(2-FLUORO-3-METHOXYPHENYL)-2-METHYLOXAZOLE-5-CARBOXAMIDE]"
< 3,< 3,10 to 25,< 3,,"Cc1nc(-c2c(F)cccc2F)c(C(=O)NC(Cc2ccccc2)C(=O)C(N)=O)o1 (stereo not drawn) [Compound 76, N-(4-AMINO-3,4-DIOXO-1-PHENYLBUTAN-2-YL)-4-(2,6-DIFLUOROPHENYL)-2-METHYLOXAZOLE-5-CARBOXAMIDE]"
< 3,< 3,,< 3,10 to 25,"O=C(O)C(=O)C(Cc1ccccc1)NC(=O)c1nsnc1-c1cccc2oc(=O)[nH]c12 (stereo not drawn) [Compound 106, 2-OXO-3-4-(2-OXO-2,3-DIHYDROBENZO[D]OXAZOL-4-YL)-1,2,5-THIADIAZOLE-3-CARBOXAMIDO)-4-PHENYLBUTANOIC ACID]"
< 3,< 3,,< 3,10 to 25,"O=C(O)C(=O)C(Cc1ccccc1)NC(=O)c1nsnc1-c1cccc2c1OC(F)(F)O2 (stereo not drawn) [Compound 107, 3-(4-(2,2-DIFLUOROBENZO[D][1,3]DIOXOL-4-YL)-1,2,5-THIADIAZOLE-3-CARBOXAMIDO)-2-OXO-4-PHENYLBUTANOIC ACID]"
< 3,< 3,,< 3,< 10,"Cc1nc(-c2c(F)cccc2F)c(C(=O)NC(Cc2ccccc2)C(=O)C(=O)O)o1 (stereo not drawn) [Compound 108, 3-(4-(2,6-DIFLUOROPHENYL)-2-METHYLOXAZOLE-5-CARBOXAMIDO)-2-OXO-4-PHENYLBUTANOIC ACID]"
< 3,< 3,,< 3,10 to 25,"CN(C)NC(=O)C(=O)C(Cc1ccccc1)NC(=O)c1nsnc1-c1ccccc1 (stereo not drawn) [Compound 109, N-(4-(2,2-DIMETHYLHYDRAZINEYL)-3,4-DIOXO-1-PHENYLBUTAN-2-YL)-4-PHENYL-1,2,5-THIADIAZOLE-3-CARBOXAMIDE]"
3 to 10,> 10,,3 to 10,> 25,"O=C(NC(Cc1ccccc1)C(=O)CO)c1nsnc1-c1ccccc1 (stereo not drawn) [Compound 111, N-(4-HYDROXY-3-OXO-1-PHENYLBUTAN-2-YL)-4-PHENYL-1,2,5-THIADIAZOLE-3-CARBOXAMIDE]"
< 3,< 3,,< 3,> 25,"Cn1cc(C(=O)NC(Cc2ccccc2)C(=O)C(N)=O)c(-c2cccc3c2OC(C)(C)O3)n1 (stereo not drawn) [Compound 112, N-(4-AMINO-3,4-DIOXO-1-PHENYLBUTAN-2-YL)-3-(2,2-DIMETHYLBENZO[D][1,3]DIOXOL-4-YL)-1-METHYL-1H-PYRAZOLE-4-CARBOXAMIDE]"
< 3,< 3,,< 3,10 to 25,"CONC(=O)C(=O)C(Cc1ccccc1)NC(=O)c1cccnc1-n1ccc(-c2ccccc2)n1 (stereo not drawn) [Compound 113, N-(4-(METHOXYAMINO)-3,4-DIOXO-1-PHENYLBUTAN-2-YL)-2-(3-PHENYL-1H-PYRAZOL-1-YL)NICOTINAMIDE]"
< 3,< 3,,< 3,> 25,"CC(C)n1c(=O)oc2c(-c3nn(C)cc3C(=O)NC(Cc3ccccc3)C(=O)C(N)=O)cccc21 (stereo not drawn) [Compound 114, N-(4-AMINO-3,4-DIOXO-1-PHENYLBUTAN-2-YL)-3-(3-ISOPROPYL-2-OXO-2,3-DIHYDROBENZO[D]OXAZOL-7-YL)-1-METHYL-1H-PYRAZOLE-4-CARBOXAMIDE]"
< 3,< 3,,< 3,< 10,"NC(=O)C(=O)C(Cc1ccccc1)NC(=O)c1nsnc1-c1cccc2c1CC(=O)N2 (stereo not drawn) [Compound 115, N-(4-AMINO-3,4-DIOXO-1-PHENYLBUTAN-2-YL)-4-(2-OXOINDOLIN-4-YL)-1,2,5-THIADIAZOLE-3-CARBOXAMIDE]"

# Source: US20210009564A1, “CALPAIN MODULATORS AND THERAPEUTIC USES THEREOF” (BLADE THERAPERTICS, INC., priority 2018, published 2021)
